Data reported in paper PMC6792352, “Limited Chemical Structural Diversity Found to Modulate Thyroid Hormone Receptor in the Tox21 Chemical Library” (Environmental Health Perspectives, 2019).
Structures can show the parent of a compound that is named as a salt.

Assay: in vitro
Conditions: rat, gh3-tre-luc cells

| SMILES | CC50 at 24 h (AC50 (uM) modified / 1000) [µM] | also measured |
| --- | --- | --- |
| CCCCCCCC/C=C\CCCCCCCCCCCC(=O)O [(13Z)-Docos-13-enoic acid] | > 90 |  |
| CCc1cc(OC)c(C[C@H](C)N)cc1OC [(+)-2,5-Dimethoxy-4-ethylamphetamine hydrochloride] | 35.7 |  |
| CC[C@H](C)COC(=O)/C=C/c1ccc(N=Cc2ccc(OC)cc2)cc1 [(+)-2-Methylbutyl-4-methoxybenzyladine-4'-aminocyannate] | > 90 |  |
| C[C@@H]1[C@@H]2Cc3ccc(O)cc3[C@@]1(C)CCN2CC1CC1 [(+)-Cyclazocine] |  | CC50 at 24 h (AC50 (uM) modified / 1000, Tox21_110001=Tox21_113513, viability, 1 nM T3 present, 24 h): > 50 µM |
| COc1ccc([C@@H]2Sc3ccccc3N(CCN(C)C)C(=O)[C@@H]2OC(C)=O)cc1 [(+)-Diltiazem] | 22.9 |  |
| Clc1ccc([C@@H]2C[C@H]3CC[C@@H]2N3)cn1 [(+)-Epibatidine hydrochloride] | > 90 |  |
| CN[C@@]1(c2ccccc2Cl)CCCCC1=O [(+)-Ketamine] | > 50 |  |
| C[C@H]1[C@@H]2Cc3ccc(O)cc3[C@@]1(C)CCN2C [(+)-Metazocine fumarate (2:1)] |  | CC50 at 24 h (AC50 (uM) modified / 1000, Tox21_110001=Tox21_112826, viability, 1 nM T3 present, 24 h): > 200 µM |
| CC(C)=CCN1CC[C@]2(C)c3cc(O)ccc3C[C@H]1[C@H]2C [(+)-Pentazocine succinate] |  | CC50 at 24 h (AC50 (uM) modified / 1000, Tox21_110001=Tox21_112876, viability, 1 nM T3 present, 24 h): > 90 µM |
| C[C@@H]1[C@@H]2Cc3ccc(O)cc3[C@@]1(C)CCN2CCc1ccccc1 [(+)-Phenazocine hydrobromide] |  | CC50 at 24 h (AC50 (uM) modified / 1000, Tox21_110001=Tox21_112834, viability, 1 nM T3 present, 24 h): 67.4 µM |
| COc1cc2c3cc1Oc1cc(ccc1O)C[C@@H]1c4c(cc(OC)c(O)c4Oc4ccc(cc4)C[C@@H]3N(C)CC2)CC[N+]1(C)C [(+)-Tubocurarine chloride hydrochloride] | > 50 |  |
| CC[C@@H](O)C(C[C@@H](C)N(C)C)(c1ccccc1)c1ccccc1 [(+)-alpha-Methadol hydrochloride] |  | CC50 at 24 h (AC50 (uM) modified / 1000, Tox21_110001=Tox21_112828, viability, 1 nM T3 present, 24 h): > 100 µM |
| Cc1c(O)cc2c(c1C)O[C@](C)(CCC[C@H](C)CCC[C@H](C)CCCC(C)C)CC2 [(+)-gamma-Tocopherol] | > 50 |  |
| CC1(C)[C@H]2CC[C@]1(C)C(=O)C2=O [(+)Camphorquinone] | > 90 |  |
| C[C@H](N)C(=O)c1ccccc1 [(-)- (S)-Cathinone hydrochloride] | > 50 |  |
| CC1(C)CCC[C@]2(C)[C@H]3CCO[C@]3(C)CC[C@@H]12 [(-)-Ambroxide] | > 90 |  |
| COC(=O)[C@H]1[C@@H](OC(=O)c2ccccc2)C[C@@H]2CC[C@H]1N2C [(-)-Cocaine hydrochloride] | > 90 |  |
| OC[C@H](Cc1cccc(O)c1)[C@H](CO)Cc1cccc(O)c1 [(-)-Enterodiol] | > 90 |  |
| Oc1cc(O)c2c(c1)O[C@H](c1ccc(O)c(O)c1)[C@H](O)C2 [(-)-Epicatechin] | > 50 |  |
| CCN[C@H](C)Cc1cccc(C(F)(F)F)c1 [(-)-Fenfluramine hydrochloride] |  | CC50 at 24 h (AC50 (uM) modified / 1000, Tox21_110001=Tox21_112865, viability, 1 nM T3 present, 24 h): 52.7 µM |
| CC(=O)Oc1ccc2c3c1O[C@H]1[C@@H](OC(C)=O)C=C[C@H]4[C@@H](C2)N(C)CC[C@@]341 [(-)-Heroin hydrochloride] | > 100 |  |
| CC1(C)C2=CCCC(C)(C)[C@]23CC[C@H]1C3 [(-)-Isolongifolene] | > 90 |  |
| C[C@@H]1[C@H]2Cc3ccc(O)cc3[C@]1(C)CCN2C [(-)-Metazocine fumarate (1:1)] |  | CC50 at 24 h (AC50 (uM) modified / 1000, Tox21_110001=Tox21_112855, viability, 1 nM T3 present, 24 h): > 200 µM |
| CC(C)=CCN1CC[C@@]2(C)c3cc(O)ccc3C[C@@H]1[C@@H]2C [(-)-Pentazocine succinate] |  | CC50 at 24 h (AC50 (uM) modified / 1000, Tox21_110001=Tox21_112877, viability, 1 nM T3 present, 24 h): 34.4 µM |
| C[C@H]1[C@H]2Cc3ccc(O)cc3[C@]1(C)CCN2CCc1ccccc1 [(-)-Phenazocine hydrobromide] |  | CC50 at 24 h (AC50 (uM) modified / 1000, Tox21_110001=Tox21_112835, viability, 1 nM T3 present, 24 h): 48.2 µM |
| CCCN1CCC[C@@H]2Cc3n[nH]cc3C[C@H]21 [(-)-Quinpirole hydrochloride] | > 50 |  |
| CC1=CC[C@@]23C[C@@H]1C(C)(C)[C@@H]2CC[C@H]3C [(-)-alpha-Cedrene] | > 90 |  |
| CC1=CC[C@H]2C[C@@H]1C2(C)C [(-)-alpha-Pinene] | > 90 |  |
| C=C(C)C(=O)OCCOC1CC2CC1C1C=CCC21 (centres unmarked) [(Dicyclopentadienyloxy)ethyl methacrylate] | > 100 |  |
